Data published in ChEMBL document CHEMBL1201862, “PubChem BioAssay data set” (2004).
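Dose response: 5 concentrations. Exposure: 48 h. Format: 96-well plates. Endpoint: linear interpolation; highest concentration if not reached. Abbreviation: GI50, concentration required for 50% inhibition of growth.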 Calls of active or inactive are those of the source. Cut-off read from the data, not from the text of the source: active = GI50 up to about 1.1 µM and inactive = higher. Starred links: 1 amine or outer side, 2 acyl side, 3 side chain; linkers in the order of their positions; H or OH if unused. Positions of bridges follow the written chain, without caps; N, C: chain ends. Non-standard residues stand in square brackets, D forms with d. Residues, ends and D or L forms follow the SMILES beside them. Chains are numbered I, II in the order given. Actinocin(1to9) = Cc1c2oc3c(C)ccc(C(=O)[*:2])c3nc-2c(C(=O)[*:1])c(N)c1=O; aThr = C[C@H](O)[C@H](N)C(=O)O; NMeV = CN[C@H](C(=O)O)C(C)C; Sar = CNCC(=O)O

Experiments:
Assay in all cases: NCI anticancer screen, dose series, 48 h
[1] = system: SR
[2] = system: NCI-H23
[3] = system: OVCAR-8
[4] = system: HCT-116
[5] = system: SK-MEL-5
[6] = system: 786-0
[7] = system: SN12C
[8] = system: TK-10
[9] = system: UACC-257
[10] = system: CAKI-1
[11] = system: HCC 2998
[12] = system: A498
[13] = system: NCI-H460
[14] = system: SNB-75
[15] = system: SK-MEL-28
[16] = system: UO-31
[17] = system: RPMI-8226
[18] = system: SF-539
[19] = system: MDA-N
[20] = system: U-251

Row | Structure (SMILES) | GI50 [1] | GI50 [2] | GI50 [3] | GI50 [4] | GI50 [5] | GI50 [6] | GI50 [7] | GI50 [8] | GI50 [9] | GI50 [10] | GI50 [11] | GI50 [12] | GI50 [13] | GI50 [14] | GI50 [15] | GI50 [16] | GI50 [17] | GI50 [18] | GI50 [19] | GI50 [20]
1 | Cc1c2oc3c(C)ccc(C(=O)N[C@@H]4C(=O)N[C@H](C(C)C)C(=O)N5CCC[C@H]5C(=O)N(C)CC(=O)N(C)[C@@H](C(C)C)C(=O)O[C@H]4C)c3nc-2c(C(=O)N[C@@H]2C(=O)N[C@H](C(C)C)C(=O)N3CCC[C@H]3C(=O)N(C)CC(=O)N(C)[C@@H](C(C)C)C(=O)O[C@H]2C)c(N)c1=O (I: [aThr][dV]P[Sar][NMeV] / II: [aThr][dV]P[Sar][NMeV]; ester I:1-I:C, II:1-II:C; linker I:N-II:N via Actinocin(1to9)) | 0.00031 µM (active) | 0.00219 µM (active) | 0.00165 µM (active) | 0.000332 µM (active) | 0.00115 µM (active) | 0.000951 µM (active) | 0.00185 µM (active) | 0.0149 µM (active) | 0.00255 µM (active) | 0.00484 µM (active) | 0.00275 µM (active) | 0.00299 µM (active) | 0.000424 µM (active) | 0.0023 µM (active) | 0.00139 µM (active) | 0.015 µM (active) | 0.00061 µM (active) | 0.000899 µM (active) | 0.000631 µM (active) | 0.000611 µM (active)
2 | O=C1C(Cl)=CC2(C=C1Cl)CCNC1=C2C(=O)c2nc[nH]c2C1=O | 2.12 µM (inactive) | 27.2 µM (inactive) | 32.9 µM (inactive) | 26 µM (inactive) | 16.6 µM (inactive) | 41.3 µM (inactive) | 36.5 µM (inactive) | > 100 µM (inactive) | 18.6 µM (inactive) | 64.4 µM (inactive) | 39.4 µM (inactive) | 36.6 µM (inactive) | 40.3 µM (inactive) | 97.5 µM (inactive) | 33.7 µM (inactive) | > 100 µM (inactive) | 30.5 µM (inactive) | 33.5 µM (inactive) | 18.5 µM (inactive) | 26.5 µM (inactive)
3 | O=[N+]([O-])c1ccc2nc(-c3ccccn3)c(-c3ccccn3)nc2c1 | 33.1 µM (inactive) | > 100 µM (inactive) | 94 µM (inactive) | 38.9 µM (inactive) | 24.4 µM (inactive) | > 100 µM (inactive) | > 100 µM (inactive) | > 100 µM (inactive) | 98.4 µM (inactive) | > 100 µM (inactive) | > 100 µM (inactive) | > 100 µM (inactive) | 45.7 µM (inactive) | > 100 µM (inactive) | > 100 µM (inactive) | > 100 µM (inactive) | > 100 µM (inactive) | 45.9 µM (inactive) | 45.4 µM (inactive) | > 100 µM (inactive)
4 | COc1ccc(-c2nc(N)n(C)c2SSc2c(-c3ccc(OC)cc3)nc(N)n2C)cc1 | 2.23 µM (inactive) | 5.14 µM (inactive) | 5.81 µM (inactive) | 2.65 µM (inactive) | 2.08 µM (inactive) | 5.77 µM (inactive) | 11.3 µM (inactive) | 14.5 µM (inactive) | 5.96 µM (inactive) | 10.1 µM (inactive) | 17.8 µM (inactive) | 7.64 µM (inactive) | 20.8 µM (inactive) | 3.34 µM (inactive) | 3.61 µM (inactive) | 5.25 µM (inactive) | 2.69 µM (inactive) | 4.69 µM (inactive) | 2.63 µM (inactive) | 13 µM (inactive)
5 | CCOC(=O)NC(Nc1ccc(OC(F)(F)F)cc1)(C(F)(F)F)C(F)(F)F | > 100 µM (inactive) | > 100 µM (inactive) | > 100 µM (inactive) | > 100 µM (inactive) | > 100 µM (inactive) | > 100 µM (inactive) | > 100 µM (inactive) | > 100 µM (inactive) | > 100 µM (inactive) | > 100 µM (inactive) | > 100 µM (inactive) | > 100 µM (inactive) | > 100 µM (inactive) | > 100 µM (inactive) | > 100 µM (inactive) | > 100 µM (inactive) | > 100 µM (inactive) | > 100 µM (inactive) | > 100 µM (inactive) | > 100 µM (inactive)
6 | CC(=O)OC(CC(C)C)P1(=O)N(CC(C)(C)C)[C@@H]2CCCC[C@H]2N1CC(C)(C)C (stereo partly drawn) | 10.2 µM (inactive) | 10.2 µM (inactive) | 8.2 µM (inactive) | 5.24 µM (inactive) | 9.4 µM (inactive) | 10.8 µM (inactive) | 10.7 µM (inactive) | 11.7 µM (inactive) | 8.41 µM (inactive) | 12.7 µM (inactive) | 6.38 µM (inactive) | 7.06 µM (inactive) | 8.57 µM (inactive) | 7.55 µM (inactive) | 14.2 µM (inactive) | 8.65 µM (inactive) | 4.01 µM (inactive) | 10.5 µM (inactive) | 8.26 µM (inactive) | 7.08 µM (inactive)
7 | CC(=O)C(=[N+]=[N-])C(=O)N1CCOC1=O | > 10 µM (inactive) | > 10 µM (inactive) | > 10 µM (inactive) | > 10 µM (inactive) | > 10 µM (inactive) | > 10 µM (inactive) | > 10 µM (inactive) | > 10 µM (inactive) | > 10 µM (inactive) | > 10 µM (inactive) | > 10 µM (inactive) | > 10 µM (inactive) | > 10 µM (inactive) | > 10 µM (inactive) | > 10 µM (inactive) | > 10 µM (inactive) | > 10 µM (inactive) | > 10 µM (inactive) | > 10 µM (inactive) | > 10 µM (inactive)
8 | C[C@]12CC[C@H](O)C[C@@H]1CC[C@@H]1[C@@H]2CC[C@]2(C)[C@@H](C3=CC(=O)OC3)CC[C@]12O | > 100 µM (inactive) | 1.87 µM (inactive) | 3.08 µM (inactive) | 1.73 µM (inactive) | 1.15 µM (inactive) | 1.95 µM (inactive) | 0.964 µM (active) | 4 µM (inactive) | 4.03 µM (inactive) | 1.81 µM (inactive) | 3.05 µM (inactive) | 4.5 µM (inactive) | 0.673 µM (active) | 3.85 µM (inactive) | 7.5 µM (inactive) | 2.37 µM (inactive) | 4.21 µM (inactive) | 1.29 µM (inactive) | 2.02 µM (inactive) | 3.73 µM (inactive)
9 | NCCNCCNc1ccc(NCCNCCN)c2c1C(=O)c1c(O)ccc(O)c1C2=O | 2.21 µM (inactive) | > 100 µM (inactive) | > 100 µM (inactive) | > 100 µM (inactive) | > 100 µM (inactive) | > 100 µM (inactive) | > 100 µM (inactive) | > 100 µM (inactive) | > 100 µM (inactive) | > 100 µM (inactive) | > 100 µM (inactive) | 70 µM (inactive) | 8.75 µM (inactive) | > 100 µM (inactive) | > 100 µM (inactive) | > 100 µM (inactive) | > 100 µM (inactive) | > 100 µM (inactive) | > 100 µM (inactive) | > 100 µM (inactive)
10 | COc1ccc(-c2cc(-c3ccccc3)n(C3OCC(OC(C)=O)C(OC(C)=O)C3OC(C)=O)c(=S)c2C#N)cc1 (stereo not drawn) | > 100 µM (inactive) | > 100 µM (inactive) | > 100 µM (inactive) | 86.5 µM (inactive) | > 100 µM (inactive) | – | > 100 µM (inactive) | 63 µM (inactive) | > 100 µM (inactive) | 67.5 µM (inactive) | > 100 µM (inactive) | 72.9 µM (inactive) | 9.42 µM (inactive) | > 100 µM (inactive) | > 100 µM (inactive) | 28.6 µM (inactive) | > 100 µM (inactive) | > 100 µM (inactive) | 54.5 µM (inactive) | > 100 µM (inactive)
11 | CCCCn1c(C)c2c(c1C)C(=O)N(CCN1CCN(c3ccccc3Cl)CC1)C2=O | 26.4 µM (inactive) | 27.2 µM (inactive) | 44.9 µM (inactive) | 18.6 µM (inactive) | 19.9 µM (inactive) | > 10 µM (inactive) | 26.7 µM (inactive) | 43.5 µM (inactive) | 28.6 µM (inactive) | 69.3 µM (inactive) | 30.6 µM (inactive) | 39 µM (inactive) | 35.5 µM (inactive) | 31.6 µM (inactive) | – | 17.6 µM (inactive) | 24.7 µM (inactive) | 17.9 µM (inactive) | 34.6 µM (inactive) | 36.5 µM (inactive)
12 | CSc1ccc2c(cc1=O)[C@@H](NC(=O)c1ccc([N+](=O)[O-])cc1)CCc1cc(O)c(O)c(O)c1-2 | 3.99 µM (inactive) | 45.3 µM (inactive) | 32.1 µM (inactive) | 34.8 µM (inactive) | 18.7 µM (inactive) | 29.8 µM (inactive) | 21.6 µM (inactive) | > 100 µM (inactive) | > 100 µM (inactive) | 21.6 µM (inactive) | > 100 µM (inactive) | > 100 µM (inactive) | 40 µM (inactive) | > 100 µM (inactive) | > 100 µM (inactive) | 78.3 µM (inactive) | 40.3 µM (inactive) | 28.8 µM (inactive) | 22.4 µM (inactive) | 34.2 µM (inactive)
13 | CCCCN1C(=O)c2c(-c3sccc3N)sc(-c3sccc3N)c2C1=O | 1.98 µM (inactive) | 28 µM (inactive) | 12.3 µM (inactive) | 21.7 µM (inactive) | 29.8 µM (inactive) | 7.85 µM (inactive) | 19 µM (inactive) | 22.3 µM (inactive) | 56.1 µM (inactive) | 23.8 µM (inactive) | 73.6 µM (inactive) | 23.4 µM (inactive) | 26.1 µM (inactive) | 10.4 µM (inactive) | 7.98 µM (inactive) | 6.84 µM (inactive) | 4.47 µM (inactive) | 12.4 µM (inactive) | 4.94 µM (inactive) | 12.9 µM (inactive)
